Results as given in PubChem BioAssay (NCI).
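Grown in 96-well plates, cells were treated for 48 hours with each compound at five concentrations. Insufficient inhibition: endpoint recorded as highest concentration tested. GI50 marks 50% less growth. At the TGI there is no net growth.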

Key:
Assay in all cases: NCI-60 cell line screen, 48 h
SF-295 CNS = system: SF-295 CNS
HCC-2998 colon = system: HCC-2998 colon
NCI-H23 lung = system: NCI-H23 lung
HL-60(TB) leukemia = system: HL-60(TB) leukemia
M14 melanoma = system: M14 melanoma
SNB-75 CNS = system: SNB-75 CNS
RPMI-8226 leukemia = system: RPMI-8226 leukemia
KM12 colon = system: KM12 colon
MALME-3M melanoma = system: MALME-3M melanoma
HS 578T breast = system: HS 578T breast

SMILES | TGI (SF-295 CNS) | TGI (HCC-2998 colon) | TGI (NCI-H23 lung) | TGI (HL-60(TB) leukemia) | TGI (M14 melanoma) | TGI (SNB-75 CNS) | TGI (RPMI-8226 leukemia) | TGI (KM12 colon) | TGI (MALME-3M melanoma) | GI50 (SF-295 CNS) | GI50 (NCI-H23 lung) | GI50 (HL-60(TB) leukemia) | GI50 (MALME-3M melanoma) | GI50 (M14 melanoma) | GI50 (SNB-75 CNS) | GI50 (KM12 colon) | GI50 (HS 578T breast) | TGI (HS 578T breast) | GI50 (RPMI-8226 leukemia)
O=C(CC(=O)Nc1ccc(Cl)cc1)NNCC(=O)Nc1nc(-c2ccccc2)cs1 | > 100 µM | > 100 µM | > 100 µM | > 100 µM | > 100 µM | > 100 µM | > 100 µM | > 100 µM |  |  |  |  |  |  |  |  |  |  | 
COc1ccc(C2(CN(C)C)COc3cc(OC)c(OC)cc3C2=O)cc1OC (centres undefined) | > 100 µM | > 100 µM | 94.4 µM | 48.2 µM | > 100 µM | > 100 µM | 63.4 µM | > 100 µM | > 100 µM |  |  |  |  |  |  |  |  |  | 
O=c1c2cc(Br)ccc2oc2ccc(Br)cc12 | > 100 µM | > 100 µM | > 100 µM | > 100 µM | > 100 µM | > 100 µM | > 100 µM | > 100 µM | > 100 µM |  |  |  |  |  |  |  |  |  | 
C/C(=N\NC(N)=S)c1ccc2c(c1)OCO2 | > 100 µM | > 100 µM | > 100 µM | > 100 µM | > 100 µM | > 100 µM | > 100 µM | > 100 µM | > 100 µM |  |  |  |  |  |  |  |  |  | 
Clc1ccc(C2=Nc3ccccc3SC(c3ccc(Cl)c(Cl)c3)C2)c(Cl)c1 (centres undefined) | 17 µM | 27.8 µM | 34.2 µM | 24.8 µM | 30.1 µM | 34.6 µM | 6.01 µM | 24.2 µM | 29.9 µM |  |  |  |  |  |  |  |  |  | 
O=c1cc/c(=N\Nc2ccccc2)c(=O)/c1=N/Nc1ccccc1 | > 50 µM |  | > 50 µM | > 50 µM | > 50 µM | > 50 µM |  | > 50 µM | > 50 µM | > 50 µM | > 50 µM | > 50 µM | > 50 µM | > 50 µM | > 50 µM | > 50 µM |  |  | 
Cc1ccccc1C(C#N)/C(=N/NC(=O)c1cc2ccccc2cc1O)C(=O)Nc1cccc(Cl)c1 (centres undefined) | > 100 µM | 78.5 µM | 51.2 µM | 26.8 µM | > 100 µM | 35.6 µM | > 100 µM | > 100 µM | > 100 µM |  |  |  |  |  |  |  |  |  | 
CCOC(=O)/C(C#N)=C(O)/C(=C/c1ccccc1Cl)NC(=O)c1ccccc1 | > 100 µM | > 100 µM | > 100 µM | > 100 µM | > 100 µM | > 100 µM | 55.1 µM | > 100 µM | > 100 µM |  |  |  |  |  |  |  |  |  | 
O=C1CCC(c2nc3ccccc3o2)C(=O)N1 (centres undefined) | > 100 µM | > 100 µM | > 100 µM | > 100 µM | > 100 µM | > 100 µM |  | > 100 µM | > 100 µM |  |  |  |  |  |  |  |  |  | 
CN1C(c2ccccc2)CC(=Nc2ccccc2)CC1c1ccccc1 (centres undefined) | 31.1 µM |  | 39.9 µM | > 100 µM | 27.9 µM | 50.4 µM | 13.7 µM |  | 22.9 µM |  |  |  |  |  |  |  |  |  | 
COc1cc2c(cc1OC)-c1c(cnn1C1OC(COC(C)=O)C(OC(C)=O)C(OC(C)=O)C1OC(C)=O)CC2 (centres undefined) | > 100 µM |  | > 100 µM |  | > 100 µM | 98.2 µM | > 57.3 µM | > 100 µM |  |  |  |  |  |  |  |  |  |  | 
O=C(Nc1ccc(C(F)(F)F)cc1[N+](=O)[O-])C(=O)C(C(=O)c1ccc2ccccc2c1)C1OC(=O)c2ccccc21 (centres undefined) | 24.8 µM | 18.3 µM | 12.1 µM | 39.6 µM | 28.1 µM | 23 µM | > 67.3 µM | 24.4 µM | 25.8 µM |  |  |  |  |  |  |  |  |  | 
N=C(c1ccccc1)N1CCCCC1 | > 100 µM | > 100 µM | > 100 µM | > 100 µM | > 100 µM | > 100 µM |  | > 100 µM | > 100 µM |  |  |  |  |  |  |  |  |  | 
OCCN(CO)CN(CN(CO)CCO)c1nc(N(CN(CO)CCO)CN(CO)CCO)nc(N(CN(CO)CCO)CN(CO)CCO)n1 | 3.94 ng/mL |  | 5.24 ng/mL | 0.859 ng/mL | 2.91 ng/mL | 2.41 ng/mL | 0.55 ng/mL | 2.8 ng/mL |  | 1.39 ng/mL | 1.57 ng/mL | 0.55 ng/mL |  | 1.21 ng/mL | 0.723 ng/mL | 1.21 ng/mL | 1.74 ng/mL | 0.0451 µg/mL | 0.55 ng/mL
CC1CCC2(OC1)OC1CC3C4CC=C5CC(OC6OC(CO)C(OC7OC(C)C(OC8OC(C)C(O)C(O)C8O)C(O)C7O)C(O)C6OC6OC(C)C(O)C(O)C6O)CCC5(C)C4CCC3(C)C1C2C (centres undefined) | 1.59 µM | 1.37 µM | 3.13 µM |  | 2.27 µM | 1.64 µM |  | 1.43 µM | 1.5 µM |  |  |  |  |  |  |  |  | 1.77 µM | 
COC(=O)c1nc(-c2ccc(Cl)c(Cl)c2)nc2ccccc12 | > 31.1 µM | > 100 µM | > 100 µM | > 100 µM | > 100 µM | 11.3 µM | > 100 µM | > 100 µM | > 100 µM |  |  |  |  |  |  |  |  |  | 
Cc1ccc2sc3cc(=O)cc(C)c-3nc2c1 | > 100 µM | > 100 µM | > 100 µM | 66 µM | > 100 µM | > 100 µM |  | > 100 µM |  |  |  |  |  |  |  |  |  |  | 
COc1cc2c(/C=C3/C(=O)Nc4ccccc43)c(Cl)n(Cc3ccccc3)c2cc1C | > 100 µM |  | > 100 µM | > 100 µM | > 100 µM |  | > 100 µM | > 100 µM | > 100 µM | > 100 µM | > 100 µM | 6.61 µM | > 100 µM | > 100 µM |  | > 100 µM | > 100 µM | > 100 µM | 21.1 µM
Cc1cc2c(C(C)C)c(O)c(O)c3coc(/c1=c1/c(C)cc4c(C(C)C)c(=O)c(=O)c5coc1c45)c32 | 16.2 µM | 14.8 µM | 9.2 µM | 17.8 µM | 25.5 µM | 23.1 µM | 34.5 µM | 14.9 µM | 29.1 µM |  |  |  |  |  |  |  |  |  | 
COc1cc2c(cc1OCCCCCOc1cc(-c3ccc(F)cc3)nc(C)n1)N=C[C@@H]1CCCN1C2=O | > 76.1 µM |  | > 100 µM | > 100 µM | > 65.7 µM | > 100 µM | > 24 µM | > 73.6 µM | > 68.7 µM | > 50.9 µM | > 100 µM | > 100 µM | > 48.3 µM | > 45.5 µM | > 100 µM | > 48.3 µM | > 47.5 µM | > 81.2 µM | 
CC(=O)/C=C1/c2ccccc2N(C(C)=O)C1O (centres undefined) | > 100 µM | > 100 µM | > 100 µM | > 100 µM | > 100 µM | > 100 µM | > 100 µM | > 100 µM |  |  |  |  |  |  |  |  |  |  | 
